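The compound was tested at five concentrations on cells cultured in 96-well plates, with a 48-hour exposure period. TGI marks complete inhibition of growth.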
Tests used:
Assay in all cases: NCI anticancer screen, dose series, 48 h
HT29 colon = system: HT29 colon
MALME-3M melanoma = system: MALME-3M melanoma
NCI-H522 lung = system: NCI-H522 lung
EKVX NSCLC = system: EKVX NSCLC
HL-60(TB) leukemia = system: HL-60(TB) leukemia
SF-539 CNS = system: SF-539 CNS
SK-MEL-28 melanoma = system: SK-MEL-28 melanoma
SF-295 CNS = system: SF-295 CNS
SK-MEL-5 melanoma = system: SK-MEL-5 melanoma
SK-OV-3 ovarian = system: SK-OV-3 ovarian
HOP-62 NSCLC = system: HOP-62 NSCLC
MOLT-4 leukemia = system: MOLT-4 leukemia
IGROV1 ovarian = system: IGROV1 ovarian
RPMI-8226 leukemia = system: RPMI-8226 leukemia
A549 NSCLC = system: A549 NSCLC
SN12C renal = system: SN12C renal
U251 CNS = system: U251 CNS
SR leukemia = system: SR leukemia

| SMILES | TGI (HT29 colon) | TGI (MALME-3M melanoma) | TGI (NCI-H522 lung) | TGI (EKVX NSCLC) | TGI (HL-60(TB) leukemia) | TGI (SF-539 CNS) | TGI (SK-MEL-28 melanoma) | TGI (SF-295 CNS) | TGI (SK-MEL-5 melanoma) | TGI (SK-OV-3 ovarian) | TGI (HOP-62 NSCLC) | TGI (MOLT-4 leukemia) | TGI (IGROV1 ovarian) | TGI (RPMI-8226 leukemia) | TGI (A549 NSCLC) | TGI (SN12C renal) | TGI (U251 CNS) | TGI (SR leukemia) |
| --- | --- | --- | --- | --- | --- | --- | --- | --- | --- | --- | --- | --- | --- | --- | --- | --- | --- | --- |
| O=[N+]([O-])c1cccc2c1[nH]c1c(-c3ccccc3)nccc12 | 10.4 µM | 6.43 µM | 4.27 µM | > 29.5 µM | 4.35 µM | > 69 µM | 21.9 µM | 12.1 µM | 3.46 µM | 7.75 µM | 5.04 µM | 4.4 µM | 11.4 µM | > 100 µM | > 42.5 µM | > 73.1 µM | > 30.3 µM |  |
| O=C(Nc1nc2ccc([N+](=O)[O-])cc2s1)c1cc([N+](=O)[O-])ccc1Cl | 6.03 µM | 10.4 µM | 4.39 µM | 8.55 µM |  | 6.71 µM |  | 14.8 µM | 2.83 µM | 13.6 µM | 10.3 µM | > 100 µM |  | 9.8 µM |  | 4.57 µM | 12.1 µM |  |
| Cn1c(=O)c2c(n(C)c1=O)n1c(=O)c3ccccc3nc1n2C | > 100 µM |  | > 100 µM | > 100 µM |  | > 100 µM | > 100 µM | > 100 µM | > 100 µM | > 100 µM | > 100 µM | > 100 µM | > 100 µM | > 100 µM | > 100 µM | > 100 µM | > 100 µM | > 100 µM |
| CCCCSC1=N/C(=C\c2ccccc2O)C(Cl)=N1 | > 100 µM | > 100 µM | > 100 µM | > 100 µM | > 100 µM | > 100 µM | > 100 µM | > 100 µM |  | > 100 µM | > 100 µM | > 100 µM | > 100 µM | > 100 µM | > 100 µM | > 100 µM | > 100 µM |  |
| CC(C)S1=C2C(=O)CC(C)(C)CC2=Nc2ccccc21 (centres undefined) | > 100 µM | > 100 µM | > 100 µM | > 100 µM |  |  | > 100 µM | > 100 µM | > 100 µM | > 100 µM | > 100 µM | > 100 µM | > 100 µM | > 100 µM | > 100 µM | > 100 µM | > 100 µM | > 100 µM |
| Nc1cc(O)c2cc(N=Nc3ccc(N=Nc4ccc(N=Nc5ccc6cc(S(=O)(=O)O)cc(S(=O)(=O)O)c6c5)c5ccccc45)c4cc(S(=O)(=O)O)ccc34)c(S(=O)(=O)O)cc2c1 | > 100 µM | > 100 µM | > 100 µM | > 100 µM | > 100 µM | > 100 µM | > 100 µM | > 100 µM | > 100 µM | > 100 µM | > 100 µM | > 100 µM | > 100 µM | > 100 µM | > 100 µM | > 100 µM | > 100 µM |  |
| O=C(Cn1c(-c2ccccc2)cc2ccccc21)N1CCOCC1 | > 100 µM | > 100 µM | > 100 µM | > 100 µM | > 100 µM | > 100 µM | > 100 µM | > 100 µM | > 100 µM | > 100 µM | > 100 µM | > 100 µM | > 100 µM | > 100 µM | > 100 µM | > 100 µM | > 100 µM |  |
| CC1=C(C(=O)OC(C)(C)C)C(c2ccc([N+](=O)[O-])cc2)C(C(=O)OC(C)(C)C)=C(C)N1 | 48.8 µM |  | 36.4 µM | 38.4 µM |  | 34.9 µM | 43.4 µM | 46.2 µM | 32.9 µM | 73.3 µM | 40.8 µM | 41.6 µM | 32.2 µM | 54 µM | 52.3 µM | 35.4 µM | 39.3 µM |  |
| Nc1nc(Nc2cc(F)c(Cl)c(F)c2)cc(=O)[nH]1 | > 100 µM | > 100 µM | > 100 µM | > 100 µM | > 100 µM | > 100 µM | > 100 µM | > 100 µM | > 100 µM | > 100 µM | > 100 µM | > 100 µM | > 100 µM | > 100 µM | > 100 µM | > 100 µM | > 100 µM |  |
| N=c1sc(N2CCOCC2)nn1CC(=O)c1ccccc1 | > 100 µM | > 100 µM | > 100 µM | > 100 µM | > 100 µM |  | > 100 µM | > 100 µM | > 100 µM | > 100 µM | > 100 µM | > 100 µM | > 100 µM | > 100 µM | > 100 µM | > 100 µM | > 100 µM |  |
| O=C(C[N+]1(c2ccccc2)CCOCC1)c1ccccc1 | > 100 µM | > 100 µM | > 100 µM | > 100 µM |  |  | 0.0908 µM | > 100 µM | > 100 µM |  | > 100 µM | > 100 µM | > 100 µM |  | > 100 µM | > 100 µM | > 100 µM | > 100 µM |
| CCCSC1=N/C(=C\c2ccco2)C(=O)N1 | > 100 µM | > 100 µM | > 100 µM | > 100 µM |  | > 100 µM | > 100 µM | > 100 µM |  | > 100 µM | > 100 µM | > 100 µM | > 100 µM | > 100 µM | > 100 µM | > 100 µM | > 100 µM |  |

Reference: PubChem BioAssay (NCI)
